# Experimental data reported in patent US20100130597A1, “DNA-PKCS MODULATES ENERGY REGULATION AND BRAIN FUNCTION” (The United State of America, as represented by the …, priority 2007, published 2010).
# Assays:
# [1] = system: LKB1; assay: LKB1 activation (LKB1 phosphorylation) in C2C12 cells; assay type: cell-based; details: NU7026 2.5 μM, Resveratrol 50 μM, FIG. 51A
# Description: Cells were treated with DNA-PKcs inhibitors to ascertain whether DNA-PKcs suppresses LKB1 activity in vitro.
# [2] = system: MCF7 cells; assay: Reactive oxygen species production in MCF7 cells (CM-H2DCFDA); assay type: cell-based; details: NU 7026 5 μM 12 h, DNP 200 μM 10 min, Troglitazone 30 μM 4 hr, Euk-134 5 μM 3 h, MnTBAP 14 μM 3 h, FIG. 4
# Source text: Measurement of intracellular reactive oxygen species was based on changes in the fluorescence intensity of redox-sensitive fluorescent probes, including CM-H2DCFDA. CM-H2DCFDA is a probe for intracellular hydrogen peroxide (Jou M J et al. J. Biomed Sci 9:507 (2002)). CM-H2DCFDA rapidly diffuses into cells, reacts with intracellular glutathione and thiols, and yields a fluorescent product that is retained inside the cell (Shanker G et al. Mol Brain Res 128:48, 2004). The fluorescence intensity of CM-H2DCFDA is therefore indicative of the amount of intracellular H2O2.
# Briefly, cells were incubated with 10 uM CM-H2DCFDA for 30 min at 37° C. The cells were then excited at the peak excitation wavelength for CM-H2DCFDA (485 nm) and emissions at 535 nm were measured with Wallac Victor multilable counter (Perkin Elmer). For glucose treatment, the total sugar content in the media was kept constant by supplementing with mannitol, which is not metabolized.
# MCF-7 cells were obtained from ATCC and grown as recommended. Confluent MCF-7 cells were incubated with serum-free DMEM medium for 3-12 h before the experiment. MCF-7 cells were then treated with DNA-PK inhibitor NU 7026 (5 μM; Calbiochem) for 12 h, DNP (200 μM; Sigma) for 10 min, Troglitazone (30 μM) for 4 hr, Euk-134 (5 μM; Eukarion) for 3 h, MnTBAP (14 μM; Calbiochem) for 3 h and Resveratrol.
# [3] = system: AMPK; assay: AMPK activation in quiescent MCF7 cells; assay type: cell-based; details: 1 and 2.5 μM, FIG. 20
# Description: MCF7 cells were obtained from the ATCC. MCF7 cells in G0 were treated with varying doses of H2O2 (FIG. 1). The cells were examined while in the G0 phase of their life cycle to mimic the post-mitotic state of cells in vivo. Low passage MCF-7 cells in G0 were exposed to varying concentrations of H2O2 for 60 minutes with or without Euk-134 or ionizing radiation (5 Gy). For Western blot analysis of DNA-PKcs activation and the activation of other signaling pathways in this study, the following antibodies were used: ACC1 (Cell Signaling); p-ACC1 (Upstate); AMP-activated protein kinase (AMPK; Cell Signaling); p-AMPK(T172) (Cell Signaling); DNA-PK (Lab Vision); p53 (Novocastra); p-DNA-PK(S2056) (Abeam); p-p53(S15) (Cell Signaling); γ-H2AX (Upstate); 53BP1 (Novus Biologicals).
# (§1) ENLITEN ATP assay kit (Promega) and ApoGlow assay kit (Cambrex), respectively. […] To determine whether the AMPK-inhibitory function of DNA-PKcs is cell autonomous, quiescent MCF7 cells were treated with 1 and 2.5 μM NU7026.
# [4] = system: mouse embryonic fibroblasts and Chinese hamster ovary cells; details: Veuger et al 2003; Griffin et al. 2005; cited from earlier work
# [5] = Forced swim test (FST); assay type: in vivo, mice; details: data not shown
# Description: (§2) Elevated plus maze tests, light/dark chamber tests, forced swim tests (FST) and hot plate tests were performed as described earlier.
# [6] = system: Sirt1 and PGC-1α; assay: Sirt1 and PGC-1α expression in C2C12 myoblasts; assay type: cell-based
# Description: (§3) Increased mitochondrial function boosts energy production and physical endurance. […] Further tests were therefore conducted to ascertain whether DNA-PKcs inhibitor elevates mitochondrial biogenesis and expression of PGC-1α and Sirt, which are important for mitochondrial biogenesis. […] It is important to note that only 2.5 μM of NU7026 was required to induce a similar level of Sirt1 to that induced by 25-50 μM Resveratrol, a well-known, potent Sirt1 activator.
# [7] = system: MCF7 cells; assay: ATP level in MCF7 cells; assay type: cell-based; details: 1 and 2.5 μM, FIG. 20
# Description: The level of ATP and the ADP/ATP ratio in cells were determined using an
# as §1
# [8] = Blood-brain barrier penetration inferred from behavioural effects; assay type: in vivo, mice; details: inferred from decreased anxiety/depression at a low-dose
# Source text: For any central nervous system drugs, a major rate-limiting step for uptake into the brain is BBB permeability. […] The BBB is an essential physiological barrier for the maintenance and regulation of brain function. It is comprised of brain microvascular endothelial cells that are connected by tight junctions. This transvascular route to the brain is impenetrable to the majority of drugs. Enhanced BBB permeability is obtained, for example, by increasing the lipid solubility of the water-soluble molecules.
# [9] = system: LKB1; assay: LKB1 IP kinase assay of muscle of treated mice; assay type: in vivo; details: mice treated with a low-dose, data not shown
# [10] = system: C2C12 cells; assay: Mitochondrial DNA copy number in C2C12 cells; assay type: cell-based; details: C2C12 cells, 2.5 μM, FIG. 49C
# Description: Quantitative Real-Time PCR was used to assess the relative amounts of nuclear DNA and mtDNA, to permit assessment of the ratio of mtDNA to nucleic DNA, which reflects the tissue concentration of mitochondria per cell. Muscle tissues were homogenized and digested with Proteinase K overnight in a lysis buffer for DNA extraction by conventional phenol-chloroform method. Quantitative PCR was performed using the following primers: […]
# as §3, with “activator. In FIG. 49C, mitochondrial DNA copy number increased (>1.8 fold) in C2C12 cells after 2.5 μM NU7026 treatment.” for “activator.”
# [11] = system: leukemic cells; details: Willmore et al. Blood 103:4659, 2004; cited from earlier work
# [12] = Light/dark chamber test; assay type: in vivo; details: treated vs untreated mice
# Description: WT and SCID mice were tested in another anxiety test using the light-dark box (Bourin and Hascoet, Eur J Pharmacol 463:55 (2003)). The light-dark box test is based on the innate aversion of rodents to brightly illuminated areas and on the spontaneous exploratory behavior of rodents in response to a mildly stressful situation, that is, a novel environment and light (Crawley and Goodwin Pharmacol Biochem Behav 13:167, 1980). In the light-dark test, increased activity in the light compartment indicates decreased anxiety.
# as §2
smiles,measurement,setting,value
"O=c1cc(N2CCOCC2)oc2c1ccc1ccccc12 [NU7026, 2-(morpholin-4-yl)-benzo[h]chomen-4-one]",LKB1 activation (LKB1 phosphorylation),[1],caused LKB1 activation
same,Reactive oxygen species production,[2],significantly decreased
same,AMPK activation,[3],activated AMPK
same,sensitization to radiation in vitro,[4],sensitize mouse embryonic fibroblasts and Chinese hamster ovary cells to radiation
same,immobility in the forced swim test,[5],decreased immobility
same,concentration required to induce a similar level of Sirt1,[6],2.5 µM
same,PGC-1α and Sirt1 expression,[6]; FIG. 49,dramatically elevated
same,ATP levels,[7],without significantly affecting ATP levels
same,blood-brain barrier (BBB) penetration,[8],can penetrate the blood-brain barrier (BBB) efficiently
same,LKB1 activity in muscles,[9],strong induction of LKB1 activity
same,mitochondrial DNA copy number increase,[10],> 1.8 fold
same,sensitization to topoisomerase II inhibitors,[11],sensitize leukemic cells to topoisomerase II inhibitors
same,time in the dark compartment,[12],less time in the dark compartment
same,time in the light compartment,[12],more time in the light compartment
same,time to enter the light chamber,[12],quicker to enter the light chamber
